Source: patent US11813305B2, “Endoplasmic reticulum stress as a predictive tool in cancer therapy and a combination therapy for the treatment of cancer” (IMMUNE SYSTEM KEY LTD., priority 2016, dated 2023)
Square brackets hold non-standard residues; d marks the D form. Peptide text beside a SMILES is read from it.

Assay: Pharmacokinetics of dTCApFs, phase I dose escalation study, i.v. 3 times/week
Conditions: human, plasma
Method: The dose escalation study followed a traditional “3+3” scheme and included doses of 6, 12, 24, 48, and 96 mg/m^2 intravenous (i.v.) dTCApFs, 3 times/week in consecutive 28-day cycles. In all 3-patient cohorts, there were 2-4 weeks between the first dose for the first and second patients, and ≥1 week for the third patient. New dose levels started after follow up of ≥28 days for 3 patients at the previous level. MTD was defined as the highest dose level at which ≥1 of 3 subjects experience a DLT during their first cycle of treatment. […] In addition, PK parameters, including area under the curve (AUC), maximal plasma concentration (Cmax), and plasma half-life (t1/2) were determined. PK parameters were estimated using non-compartmental models.
dTCApFs powder for solution for injection is supplied as a lyophilized 5 mL vial containing either 15 mg (7.5 mg/mL) or 10 mL vial containing 80 mg (40 mg/mL) of the active substance with 4.8% mannitol, for reconstitution to a final volume of 2 mL with water for injection per vial as described above. The reconstituted 2 mL vial of dTCApFs powder for solution for injection must thereafter be diluted to a final volume 100 mL in aqueous Dextrose 5% for infusion for dose levels up to and including 48 mg/m2. For dose levels above 48 mg/m2, the final dilution volume was 250 mL. dTCApFs for injection was administered intravenously (iv) during 60 minutes.
PK parameters, including AUC (0-24), Cmax, Cmin, Tmax and t1/2 are estimated using non-compartmental models. Comparisons across dose levels are made to assess proportionality.

CC(C)C[C@@H](NC(=O)[C@H](NC(=O)[C@@H](CO)NC(=O)[C@H]1CCCN1C(=O)[C@@H](CC(C)C)NC(=O)[C@@H](Cc1ccccc1)NC(=O)[C@@H](Cc1ccccc1)NC(=O)[C@H](NC(=O)[C@@H](Cc1c[nH]c2ccccc12)NC(=O)[C@H](N)Cc1c[nH]c2ccccc12)[C@H](C)O)[C@H](C)O)C(=O)N[C@H](Cc1c[nH]c2ccccc12)C(=O)N[C@H](CCC(=O)O)C(=O)N[C@H](CCCNC(=N)N)C(=O)N[C@H](CCCCN)C(=O)O [dTCApFs, Trp Trp Thr Phe Phe Leu Pro Ser Thr Leu Trp Glu Arg Lys] (H-[dW][dW][dT][dF][dF][dL][dP][dS][dT][dL][dW][dE][dR][dK]-OH; N-terminus and C-terminus assumed)
Cmax (intravenous, 12 mg/m^2, Cmax, Cycle 2, Day 1, 12 mg/m^2, n = 4): 6050 ng/mL | Cmax (intravenous, 24 mg/m^2, Cmax, Cycle 2, Day 1, 24 mg/m^2, n = 4): 14600 ng/mL | AUC (intravenous, 96 mg/m^2, AUC0, Cycle 2, Day 1, 96 mg/m^2, n = 3): 295000 ng·h/mL | AUC (iv, 6 mg/m2, AUC0, Cycle 1, Day 1, 6 mg/m^2, n = 3): 3810 ng·h/mL | AUC (iv, 6 mg/m2, AUC0, Cycle 2, Day 1, 6 mg/m^2, n = 3): 9720 ng·h/mL | Cmax (iv, 6 mg/m2, Cmax, Cycle 1, Day 1, 6 mg/m^2, n = 3): 1210 ng/mL | Cmax (iv, 6 mg/m2, Cmax, Cycle 2, Day 1, 6 mg/m^2, n = 3): 1540 ng/mL | half-life (iv, 6 mg/m2, T1/2, Cycle 1, Day 1, 6 mg/m^2, n = 3): 2.3 h | half-life (iv, 6 mg/m2, T1/2, Cycle 2, Day 1, 6 mg/m^2, n = 3): 2.8 h | AUC (iv, 12 mg/m2, AUC0, Cycle 1, Day 1, 12 mg/m^2, n = 4): 12900 ng·h/mL | AUC (iv, 12 mg/m2, AUC0, Cycle 2, Day 1, 12 mg/m^2, n = 4): 11500 ng·h/mL | Cmax (iv, 12 mg/m2, Cmax, Cycle 1, Day 1, 12 mg/m^2, n = 4): 6050 ng/mL | half-life (iv, 12 mg/m2, T1/2, Cycle 1, Day 1, 12 mg/m^2, n = 4): 2.1 h | half-life (iv, 12 mg/m2, T1/2, Cycle 2, Day 1, 12 mg/m^2, n = 4): 2 h | AUC (iv, 24 mg/m2, AUC0, Cycle 1, Day 1, 24 mg/m^2, n = 4): 49600 ng·h/mL | AUC (iv, 24 mg/m2, AUC0, Cycle 2, Day 1, 24 mg/m^2, n = 4): 57100 ng·h/mL | Cmax (iv, 24 mg/m2, Cmax, Cycle 1, Day 1, 24 mg/m^2, n = 4): 14600 ng/mL | half-life (iv, 24 mg/m2, T1/2, Cycle 1, Day 1, 24 mg/m^2, n = 4): 3.2 h | half-life (iv, 24 mg/m2, T1/2, Cycle 2, Day 1, 24 mg/m^2, n = 4): 3.7 h | AUC (iv, 48 mg/m2, AUC0, Cycle 1, Day 1, 48 mg/m^2, n = 4): 79900 ng·h/mL | AUC (iv, 48 mg/m2, AUC0, Cycle 2, Day 1, 48 mg/m^2, n = 4): 100000 ng·h/mL | Cmax (iv, 48 mg/m2, Cmax, Cycle 1, Day 1, 48 mg/m^2, n = 4): 18300 ng/mL | Cmax (iv, 48 mg/m2, Cmax, Cycle 2, Day 1, 48 mg/m^2, n = 4): 22100 ng/mL | half-life (iv, 48 mg/m2, T1/2, Cycle 1, Day 1, 48 mg/m^2, n = 4): 4.9 h | half-life (iv, 48 mg/m2, T1/2, Cycle 2, Day 1, 48 mg/m^2, n = 4): 4.6 h | AUC (iv, 96 mg/m2, AUC0, Cycle 1, Day 1, 96 mg/m^2, n = 3): 207000 ng·h/mL | Cmax (iv, 96 mg/m2, Cmax, Cycle 1, Day 1, 96 mg/m^2, n = 3): 33000 ng/mL | Cmax (iv, 96 mg/m2, Cmax, Cycle 2, Day 1, 96 mg/m^2, n = 3): 32000 ng/mL | half-life (iv, 96 mg/m2, T1/2, Cycle 1, Day 1, 96 mg/m^2, n = 3): 6 h | half-life (iv, 96 mg/m2, T1/2, Cycle 2, Day 1, 96 mg/m^2, n = 3): 8.5 h
